Test results: patent publication US9040586B2, “Veterinary compositions for controlling ecto- and endoparasites in bovines, use of these compositions, use of IGR substances associated with microminerals, method for controlling ecto- and endoparasites in bovines and kit” (Champion Farmoquimico Ltda., priority 2012, dated 2015)

Columns and labels:
[1] = cited from earlier work
[2] = tested on: Haematobia irritans; assay: Haematobia irritans field test: horn fly counts on calves; assay type: in vivo
Method: The experiment was conducted at Fazenda Santo Amaro in the city of Ouro Verde de Goiás—GO, Brazil, between October 2011 and January 2012, on 20 calves aged 12-16 months and weigh between 147 and 305 kg, divided in control group (T0) and treated group (T1).
The animals were weighed, identified and kept on Brachiaha brizantha pasture with “ad libitum” access to drinking water troughs. The control group received “ad libitum” minerals (T0), while the treated group received a micromineral mixture containing iron, copper, manganese, iodine, cobalt, zinc, selenium and chromium added to rock salt. Diflubenzuron was added to this mixture in the following proportion: 1.1 g per kilo of the mixture. A macromineral source was offered separately in the trough.
In order to determine the number of horn flies, ticks and helminth eggs per gram of feces, as well as periodic weighing, the animals were handled in a 30 day basis.
The animals were lead to the corral for the initial counting of the total number of horn flies in the cervical and lumbar regions.
The field experiment was conducted during the summer, a critical period for horn fly infestations in Brazil (BIANCHIN et al., 2004). […]
At the end of the experimental period, the animals were lead to the containment chute to have the flies counted. […]

[3] = tested on: Rhipicephalus (Boophilus) microplus; assay: Rhipicephalus (Boophilus) microplus challenge: engorged female weight and oviposition; assay type: in vivo, calves; settings: treated group
Method: For this challenge, 5 animals were randomly selected from each group. Animals from both control and treated groups were transferred to individual tick-free pens with wooden tiled floor, where they remained for 21 days until the engorged females dropped to the ground. Those were collected on a daily basis for a 5 day period, and put on plastic vessels, formerly washed and dried with paper towels. After the engorged ticks were weighed, they're put on Petri dishes and then into a B.O.D. incubator for two weeks, under 27° C. and relative humidity over 85% (SANTOS e FURLONG, 2002; PEREIRA, 2006).
After this period, oviposition in each of the Petri dishes were weighed and transferred to assay tubes (15 cm high and with a 15 mm diameter each) sealed with cotton. The assays tubes were labeled and then returned to the B.O.D. incubator, under the same conditions described above, up to the larval emergence.

[4] = tested on: Haematobia irritans; assay: Haematobia irritans in vitro test: eggs developed in feces of treated cattle; assay type: in vivo; settings: 20 days
Method: In order to evaluate the efficacy of Diflubenzuron over H. irritans larval development, without possible interference of climate changes, an experiment was conducted under controlled conditions.
Adult horn flies over untreated animals were captured with a net and then shipped to the Tropical Pathology and Public Health Institute (IPTSP/GO) in order to obtain the eggs. The flies were put on cages lined with moist coffee filter as a substrate for oviposition. The filter was inspected every three hours for eggs. Those were subject to analysis regarding viability and transferred to a vessel containing feces from 4 animals among the control and diflubenzuron treated groups, randomly chosen, each containing 50 viable eggs. These containers with feces were maintained in a B.O.D. incubator with constant temperature (25° C.) and under photoperiod of 12 hours, for a 20 day period, at the end of which was noted an end to the hatching of eggs.
Both groups—T0 e T1—, were statistically compared by the Mann-Whitney test, with P adjusted in 0.05 due to the impossibility of testing distribution normality, given the low number of repetitions (n=4).

[5] = tested on: gastrointestinal nematodes of cattle; settings: 19 of the 23 farms; cited from earlier work
[6] = cited from earlier work; remark: listed apart in the source

## CC1(C)[C@H](C(=O)O[C@H](C#N)c2cccc(Oc3ccccc3)c2)[C@@H]1C=C(Br)Br [Deltamethrin]
[1]
  Oral LD50: 130 mg/kg

## CC1(C)C(C=C(Cl)Cl)C1C(=O)OC(C#N)c1cccc(Oc2ccccc2)c1 (stereo not drawn) [Cypermethrin]
[1]
  Oral LD50: 250 mg/kg

## O=C(NC(=O)c1c(F)cccc1F)Nc1ccc(Cl)cc1 [Diflubenzuron, 1-(4-chloridephenyl)-3-(2,6-difulorobenzoyl)urea]
[2]
  reduction on horn fly numbers on the treated group: higher than 99%
[3]; control 278 mg
  average engorged female ticks' weight: 153 mg
[3]; control 260-295 mg
  weight of collected engorged ticks: 145 to 165 mg
[3]; control 2,600
  average egg laying of the female: 900 eggs
[1]; in vivo
  median lethal dose: 4,640 mg/kg
[4]; 50 viable eggs per container, feces of treated cattle, 25° C., control 43±4.1633
  hatching average: 0.5±0.1
[4]; in vitro, method of HOLDSWORTH et al., 2006
  calculated efficiency, based on the control group: 98.83%

## Ivermectin
[5]
  reductions in FEC: < 50%
[1]
  Oral LD50: 52 mg/kg

## Abamectin
[1]
  Oral LD50: 10 mg/kg

## N#Cc1nn(-c2c(Cl)cc(C(F)(F)F)cc2Cl)c(N)c1[S+]([O-])C(F)(F)F (stereo not drawn) [Fipronil]
[1]
  Oral LD50: 97 mg/kg

## Cc1ccc(N=c2sccn2C)c(C)c1 [Cymiazoles]
[6]; beef cattle
  withdrawal prior to slaughter: 3 days
[6]; milk / lactating cows, in words, table cells wrap over 4 rows: 'Do not apply on lactating cows'
  Withdrawal period Milk: no withdrawn period needed
